From ChEMBL document CHEMBL5550083, “Structural optimization of a lysine demethylase 5 inhibitor for improvement of its cellular activity” (Bioorg Med Chem, 2024)
pIC50: −log10 of the molar value. Blank lines part the entries; values can stand above or below the compound they belong to. Calls of active or inactive are those of the source. The calls are words filed in the database; no cut-off is given here.

Tests used:
[1] = molecular target: T1, Lysine-specific demethylase 5B (Homo sapiens, UniProt Q9UGL1); test: Inhibition of KDM5B (unknown origin) at 10 nM incubated for 2 hrs by Alphascreen assay
T1 sequence (Q9UGL1 whole entry): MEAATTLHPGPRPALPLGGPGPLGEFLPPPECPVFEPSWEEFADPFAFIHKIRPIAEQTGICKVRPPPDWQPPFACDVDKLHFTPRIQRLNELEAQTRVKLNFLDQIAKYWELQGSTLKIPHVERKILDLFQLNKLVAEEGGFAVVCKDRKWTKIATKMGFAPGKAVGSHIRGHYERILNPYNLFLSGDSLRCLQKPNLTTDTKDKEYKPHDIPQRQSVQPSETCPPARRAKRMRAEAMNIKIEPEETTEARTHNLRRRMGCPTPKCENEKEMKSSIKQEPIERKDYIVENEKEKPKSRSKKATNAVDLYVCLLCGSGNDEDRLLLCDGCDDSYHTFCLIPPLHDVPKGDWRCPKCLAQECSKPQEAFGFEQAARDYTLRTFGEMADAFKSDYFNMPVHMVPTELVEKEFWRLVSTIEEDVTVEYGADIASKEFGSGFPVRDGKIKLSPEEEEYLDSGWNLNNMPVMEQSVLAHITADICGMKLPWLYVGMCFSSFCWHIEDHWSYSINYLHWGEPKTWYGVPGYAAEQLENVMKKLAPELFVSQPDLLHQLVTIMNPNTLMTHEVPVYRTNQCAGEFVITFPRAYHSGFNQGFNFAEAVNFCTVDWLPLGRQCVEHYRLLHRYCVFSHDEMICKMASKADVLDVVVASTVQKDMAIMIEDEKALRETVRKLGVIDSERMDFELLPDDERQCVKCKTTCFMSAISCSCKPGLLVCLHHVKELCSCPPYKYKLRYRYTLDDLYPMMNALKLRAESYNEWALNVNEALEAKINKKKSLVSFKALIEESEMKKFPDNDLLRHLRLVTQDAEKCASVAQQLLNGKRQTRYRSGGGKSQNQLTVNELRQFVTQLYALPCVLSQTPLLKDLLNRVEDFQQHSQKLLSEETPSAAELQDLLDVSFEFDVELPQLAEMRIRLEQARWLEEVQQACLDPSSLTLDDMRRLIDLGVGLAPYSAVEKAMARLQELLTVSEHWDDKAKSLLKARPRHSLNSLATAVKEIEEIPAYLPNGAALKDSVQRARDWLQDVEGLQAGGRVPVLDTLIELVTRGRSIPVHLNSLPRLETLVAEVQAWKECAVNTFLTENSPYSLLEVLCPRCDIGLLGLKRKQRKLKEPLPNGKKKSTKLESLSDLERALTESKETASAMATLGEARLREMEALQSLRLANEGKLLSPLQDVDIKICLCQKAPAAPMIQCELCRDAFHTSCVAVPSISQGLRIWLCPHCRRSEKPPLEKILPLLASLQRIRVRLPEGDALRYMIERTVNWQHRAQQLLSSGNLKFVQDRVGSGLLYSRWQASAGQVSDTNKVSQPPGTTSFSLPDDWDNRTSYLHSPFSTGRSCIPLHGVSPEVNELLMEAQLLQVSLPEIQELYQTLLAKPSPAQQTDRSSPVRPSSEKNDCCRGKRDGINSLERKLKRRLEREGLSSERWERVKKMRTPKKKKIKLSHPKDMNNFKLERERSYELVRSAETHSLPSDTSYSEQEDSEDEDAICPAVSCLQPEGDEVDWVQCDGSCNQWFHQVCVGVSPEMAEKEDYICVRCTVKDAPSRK

[2] = molecular target: T1, Lysine-specific demethylase 5B; test: Inhibition of KDM5B (unknown origin) incubated for 2 hrs by Alphascreen assay
[3] = molecular target: T2, Lysine-specific demethylase 4A (Homo sapiens, UniProt O75164); test: Inhibition of KDM4A (unknown origin) incubated for 2 hrs by Alphascreen assay
T2 sequence (O75164 whole entry): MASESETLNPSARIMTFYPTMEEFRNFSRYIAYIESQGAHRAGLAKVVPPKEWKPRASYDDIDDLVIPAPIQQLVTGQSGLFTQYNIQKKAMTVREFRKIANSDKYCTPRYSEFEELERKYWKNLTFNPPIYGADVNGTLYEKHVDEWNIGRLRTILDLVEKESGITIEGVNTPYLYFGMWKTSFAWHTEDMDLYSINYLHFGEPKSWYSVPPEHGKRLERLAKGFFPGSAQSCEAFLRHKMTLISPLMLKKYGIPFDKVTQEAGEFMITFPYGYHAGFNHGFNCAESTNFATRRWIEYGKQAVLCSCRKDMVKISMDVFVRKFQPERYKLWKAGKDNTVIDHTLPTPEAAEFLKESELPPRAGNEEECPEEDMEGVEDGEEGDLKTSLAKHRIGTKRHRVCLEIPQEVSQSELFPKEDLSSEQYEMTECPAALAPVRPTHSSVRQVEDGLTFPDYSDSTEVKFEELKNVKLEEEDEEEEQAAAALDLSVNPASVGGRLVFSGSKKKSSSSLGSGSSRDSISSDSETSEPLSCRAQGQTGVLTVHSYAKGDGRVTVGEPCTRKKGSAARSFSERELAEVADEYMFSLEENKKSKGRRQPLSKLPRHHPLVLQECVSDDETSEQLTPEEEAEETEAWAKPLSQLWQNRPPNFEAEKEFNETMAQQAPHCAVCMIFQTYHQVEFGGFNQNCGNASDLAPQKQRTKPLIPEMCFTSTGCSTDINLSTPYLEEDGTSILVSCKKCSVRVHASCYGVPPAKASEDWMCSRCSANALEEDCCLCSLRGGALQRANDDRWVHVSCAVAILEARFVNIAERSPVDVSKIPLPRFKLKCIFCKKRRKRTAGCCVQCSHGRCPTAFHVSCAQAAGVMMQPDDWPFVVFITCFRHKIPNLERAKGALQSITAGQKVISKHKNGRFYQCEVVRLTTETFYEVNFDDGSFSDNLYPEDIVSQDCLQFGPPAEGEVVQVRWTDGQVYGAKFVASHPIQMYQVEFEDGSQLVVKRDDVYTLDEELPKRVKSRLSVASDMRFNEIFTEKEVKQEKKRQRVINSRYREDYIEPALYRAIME

[4] = molecular target: Lysine-specific demethylase 5C (Homo sapiens, UniProt P41229); test: Inhibition of KDM5C (unknown origin) incubated for 2 hrs by Alphascreen assay
[5] = molecular target: Lysine-specific demethylase 5A (Homo sapiens, UniProt P29375); test: Inhibition of KDM5A (unknown origin) incubated for 2 hrs by Alphascreen assay
Chain of Lysine-specific demethylase 5A (P29375 whole entry): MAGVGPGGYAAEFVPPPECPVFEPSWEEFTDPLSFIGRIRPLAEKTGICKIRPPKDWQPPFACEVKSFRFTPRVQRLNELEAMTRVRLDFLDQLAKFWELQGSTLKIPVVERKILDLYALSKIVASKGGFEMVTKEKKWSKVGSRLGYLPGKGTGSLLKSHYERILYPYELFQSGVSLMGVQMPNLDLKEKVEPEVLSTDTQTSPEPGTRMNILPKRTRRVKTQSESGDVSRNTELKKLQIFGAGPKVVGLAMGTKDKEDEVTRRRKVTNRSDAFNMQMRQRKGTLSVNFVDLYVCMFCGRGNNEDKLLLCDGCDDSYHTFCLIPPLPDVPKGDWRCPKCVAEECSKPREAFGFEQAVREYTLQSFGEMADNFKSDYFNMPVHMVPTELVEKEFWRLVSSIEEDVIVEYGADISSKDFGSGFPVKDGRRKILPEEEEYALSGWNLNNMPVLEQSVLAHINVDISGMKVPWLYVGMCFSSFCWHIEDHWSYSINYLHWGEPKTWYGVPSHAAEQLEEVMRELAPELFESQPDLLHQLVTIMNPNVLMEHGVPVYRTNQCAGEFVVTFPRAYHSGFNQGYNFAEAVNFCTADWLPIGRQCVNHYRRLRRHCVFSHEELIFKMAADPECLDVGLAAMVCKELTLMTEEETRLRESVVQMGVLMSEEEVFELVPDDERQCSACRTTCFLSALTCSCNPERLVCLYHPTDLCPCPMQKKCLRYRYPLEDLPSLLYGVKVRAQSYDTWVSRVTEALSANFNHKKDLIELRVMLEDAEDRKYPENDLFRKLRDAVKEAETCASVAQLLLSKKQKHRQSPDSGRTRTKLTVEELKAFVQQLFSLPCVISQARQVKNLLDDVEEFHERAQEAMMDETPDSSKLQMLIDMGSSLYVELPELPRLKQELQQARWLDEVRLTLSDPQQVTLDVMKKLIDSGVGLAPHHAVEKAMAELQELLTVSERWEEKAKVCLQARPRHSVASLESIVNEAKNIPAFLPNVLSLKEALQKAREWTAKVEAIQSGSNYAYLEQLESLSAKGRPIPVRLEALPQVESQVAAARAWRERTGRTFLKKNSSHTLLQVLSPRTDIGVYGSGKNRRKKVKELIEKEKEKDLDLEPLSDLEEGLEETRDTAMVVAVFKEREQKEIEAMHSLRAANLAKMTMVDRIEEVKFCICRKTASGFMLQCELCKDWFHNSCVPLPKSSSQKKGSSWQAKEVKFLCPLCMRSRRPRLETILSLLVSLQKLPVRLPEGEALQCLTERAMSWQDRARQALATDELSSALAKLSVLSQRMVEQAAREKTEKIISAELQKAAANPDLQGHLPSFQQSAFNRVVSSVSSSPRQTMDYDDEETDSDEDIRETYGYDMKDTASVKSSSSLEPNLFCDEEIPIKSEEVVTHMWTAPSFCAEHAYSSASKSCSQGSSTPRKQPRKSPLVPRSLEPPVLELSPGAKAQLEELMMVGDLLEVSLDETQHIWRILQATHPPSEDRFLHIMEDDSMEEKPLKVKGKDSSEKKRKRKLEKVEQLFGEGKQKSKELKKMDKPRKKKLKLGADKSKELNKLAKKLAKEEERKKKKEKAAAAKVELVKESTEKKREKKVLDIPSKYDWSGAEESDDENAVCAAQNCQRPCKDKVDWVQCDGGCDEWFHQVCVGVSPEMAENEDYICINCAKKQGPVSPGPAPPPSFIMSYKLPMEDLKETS

[6] = molecular target: Lysine-specific demethylase 6B (Homo sapiens, UniProt O15054); test: Inhibition of KDM6B (unknown origin) incubated for 2 hrs by Alphascreen assay
Chain of Lysine-specific demethylase 6B (O15054 whole entry): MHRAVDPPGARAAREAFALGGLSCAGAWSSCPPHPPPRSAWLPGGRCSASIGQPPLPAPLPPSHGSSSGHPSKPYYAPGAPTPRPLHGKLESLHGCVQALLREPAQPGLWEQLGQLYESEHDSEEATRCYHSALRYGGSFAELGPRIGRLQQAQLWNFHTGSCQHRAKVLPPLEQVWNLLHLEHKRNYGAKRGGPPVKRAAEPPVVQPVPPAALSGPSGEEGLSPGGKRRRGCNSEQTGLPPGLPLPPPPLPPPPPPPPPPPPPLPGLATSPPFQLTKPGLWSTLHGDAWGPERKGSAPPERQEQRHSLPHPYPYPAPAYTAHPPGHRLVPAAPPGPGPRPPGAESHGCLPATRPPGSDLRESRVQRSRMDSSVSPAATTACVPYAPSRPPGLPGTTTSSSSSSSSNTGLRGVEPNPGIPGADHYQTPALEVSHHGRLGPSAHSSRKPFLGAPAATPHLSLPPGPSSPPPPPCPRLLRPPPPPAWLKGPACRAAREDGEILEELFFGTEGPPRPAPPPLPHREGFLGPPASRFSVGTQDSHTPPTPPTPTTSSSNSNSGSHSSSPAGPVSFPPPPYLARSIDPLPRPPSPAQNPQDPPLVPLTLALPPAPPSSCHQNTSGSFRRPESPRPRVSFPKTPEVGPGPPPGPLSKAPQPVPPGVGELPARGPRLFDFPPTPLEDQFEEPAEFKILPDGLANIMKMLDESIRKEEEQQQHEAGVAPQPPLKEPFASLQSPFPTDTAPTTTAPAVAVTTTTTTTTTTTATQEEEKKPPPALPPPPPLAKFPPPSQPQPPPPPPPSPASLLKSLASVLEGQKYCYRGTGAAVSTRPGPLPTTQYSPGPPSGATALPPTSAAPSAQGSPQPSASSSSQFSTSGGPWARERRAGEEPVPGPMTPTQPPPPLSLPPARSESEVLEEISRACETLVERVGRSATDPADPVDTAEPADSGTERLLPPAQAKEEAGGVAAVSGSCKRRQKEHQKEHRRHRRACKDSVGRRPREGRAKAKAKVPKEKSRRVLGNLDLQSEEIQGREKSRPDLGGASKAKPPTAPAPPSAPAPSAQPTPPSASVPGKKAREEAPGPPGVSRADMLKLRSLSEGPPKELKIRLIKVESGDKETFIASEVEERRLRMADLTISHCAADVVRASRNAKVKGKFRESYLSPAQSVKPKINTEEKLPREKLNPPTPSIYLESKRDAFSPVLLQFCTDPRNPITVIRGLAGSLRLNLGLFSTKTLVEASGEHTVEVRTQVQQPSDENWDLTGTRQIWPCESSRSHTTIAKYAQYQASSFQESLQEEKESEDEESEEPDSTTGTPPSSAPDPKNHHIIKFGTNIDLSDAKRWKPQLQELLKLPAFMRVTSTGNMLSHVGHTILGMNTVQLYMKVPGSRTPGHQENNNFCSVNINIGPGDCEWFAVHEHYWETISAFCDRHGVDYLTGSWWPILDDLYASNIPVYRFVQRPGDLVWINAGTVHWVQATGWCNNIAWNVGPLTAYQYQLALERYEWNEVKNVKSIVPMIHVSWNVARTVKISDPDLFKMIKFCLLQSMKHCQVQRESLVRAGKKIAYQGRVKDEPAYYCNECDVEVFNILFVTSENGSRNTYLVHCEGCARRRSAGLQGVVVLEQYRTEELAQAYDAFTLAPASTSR

[7] = molecular target: T3, Lysine-specific demethylase 3A (Homo sapiens, UniProt Q9Y4C1); test: Inhibition of KDM3A (unknown origin) incubated for 2 hrs by Alphascreen assay
T3 sequence (Q9Y4C1 whole entry): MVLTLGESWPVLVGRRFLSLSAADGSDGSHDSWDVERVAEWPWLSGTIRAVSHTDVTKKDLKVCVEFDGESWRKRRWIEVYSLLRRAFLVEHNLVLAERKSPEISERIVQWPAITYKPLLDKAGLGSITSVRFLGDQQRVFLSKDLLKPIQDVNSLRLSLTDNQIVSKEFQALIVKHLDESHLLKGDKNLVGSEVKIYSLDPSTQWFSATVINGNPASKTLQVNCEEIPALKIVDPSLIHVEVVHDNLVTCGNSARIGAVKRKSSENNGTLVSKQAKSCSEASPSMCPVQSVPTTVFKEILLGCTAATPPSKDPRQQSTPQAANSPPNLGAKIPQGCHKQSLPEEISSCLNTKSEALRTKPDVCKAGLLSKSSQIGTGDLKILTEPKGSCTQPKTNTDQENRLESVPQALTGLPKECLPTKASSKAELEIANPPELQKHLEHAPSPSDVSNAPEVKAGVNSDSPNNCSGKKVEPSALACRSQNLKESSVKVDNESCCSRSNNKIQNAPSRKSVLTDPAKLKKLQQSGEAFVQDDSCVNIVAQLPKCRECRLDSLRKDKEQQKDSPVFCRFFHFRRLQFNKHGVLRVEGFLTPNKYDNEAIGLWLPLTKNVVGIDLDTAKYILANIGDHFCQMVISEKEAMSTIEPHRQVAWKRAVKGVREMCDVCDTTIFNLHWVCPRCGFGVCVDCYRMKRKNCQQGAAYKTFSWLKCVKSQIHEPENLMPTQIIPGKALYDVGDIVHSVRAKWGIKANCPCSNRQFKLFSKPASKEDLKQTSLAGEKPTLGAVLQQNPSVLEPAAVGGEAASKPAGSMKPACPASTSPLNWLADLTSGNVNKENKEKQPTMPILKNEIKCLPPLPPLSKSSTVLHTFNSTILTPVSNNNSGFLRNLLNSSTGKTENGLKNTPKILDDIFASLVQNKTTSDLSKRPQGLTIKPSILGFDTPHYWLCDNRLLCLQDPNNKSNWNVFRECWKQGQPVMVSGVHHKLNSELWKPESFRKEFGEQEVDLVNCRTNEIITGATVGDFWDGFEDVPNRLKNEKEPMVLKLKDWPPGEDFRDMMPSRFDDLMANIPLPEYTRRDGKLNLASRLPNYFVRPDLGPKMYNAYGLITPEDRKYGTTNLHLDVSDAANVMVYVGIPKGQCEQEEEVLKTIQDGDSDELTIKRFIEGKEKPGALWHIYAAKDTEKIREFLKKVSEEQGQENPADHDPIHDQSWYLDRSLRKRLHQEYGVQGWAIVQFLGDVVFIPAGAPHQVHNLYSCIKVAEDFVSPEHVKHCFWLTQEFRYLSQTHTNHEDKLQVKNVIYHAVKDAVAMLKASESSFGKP

[8] = Apparent permeability of the compound at 100 uM incubated for 4 hrs by PAMPA assay; format: ADME
A549 [9] = test: Inhibition of KDM5 in human A549 cells assessed as increase in H3K4me3 level at 400 nM incubated for 18 hrs by Western blot analysis; format: cell-based
A549 [10] = test: Inhibition of KDM4 in human A549 cells assessed as increase in H3K9me3 level at 100 to 400 nM incubated for 18 hrs by Western blot analysis; format: cell-based; conditions: dose 100-400 nM
[11] = Lipophilicity, log D of the compound in PBS at 100 uM at pH 7.4 incubated for 20 mins by UPLC analysis; format: physicochemical
A549 [12] = test: Inhibition of KDM5 in human A549 cells assessed as increase in H3K4me3 level incubated for 18 hrs by Western blot analysis; format: cell-based; conditions: dose 100-400 nM
A549 [13] = test: Inhibition of KDM6 in human A549 cells assessed as increase in H3K27me3 level at 100 to 400 nM incubated for 18 hrs by Western blot analysis; format: cell-based; conditions: dose 100-400 nM
A549 [14] = test: Inhibition of KDM5 in human A549 cells assessed as increase in H3K4me3 level at 400 nM by Western blot analysis; format: cell-based; conditions: time 1-18 hrs, TDE = time-dependent effect

Structure (SMILES): CCCCN(CCCC)CCN(CC)C(=O)CNCc1cc(C(=O)O)ccn1
inhibition activity call [1]: Active

Structure (SMILES): CCN(CCN(Cc1ccccc1)Cc1ccccc1)C(=O)CNCc1cc(C(=O)O)ccn1
inhibition activity call [1]: Active

Structure (SMILES): CCN(CCN(C)Cc1ccccc1)C(=O)CNCc1cc(C(=O)O)ccn1
inhibition activity call [1]: Active
pIC50 [2]: 8.07

Structure (SMILES): CCCN(C)CCN(CC)C(=O)CNCc1cc(C(=O)O)ccn1
inhibition activity call [1]: Active
pIC50 [2]: 8.20

Structure (SMILES): CCCN(CCC)CCN(CC)C(=O)CNCc1cc(C(=O)O)ccn1
inhibition activity call [1]: Active

Structure (SMILES): CCCCN(C)CCN(CC)C(=O)CNCc1cc(C(=O)O)ccn1
pIC50 [3]: 6.41
pIC50 [4]: 7.87
pIC50 [5]: 8.91
pIC50 [6]: < 5.30
pIC50 [7]: < 4.30

Structure (SMILES): CC(C)NCC(O)COc1cccc2ccccc12 (stereo not given) [PROPRANOLOL]
Papp at 4 h, 100 µM [8]: 3.9 ×10⁻⁶ cm/s

Structure (SMILES): CCCCN(C)CCN(CC)C(=O)CNCc1cc(C(=O)OCC)ccn1
inhibition (A549 [9]): Active
inhibition (A549 [10]): inactive
logD at 20 min, 100 µM [11]: 2.2
inhibition (A549 [12]): Dose-Dependent Effect
inhibition (A549 [13]): inactive
Papp at 4 h, 100 µM [8]: 0.6 ×10⁻⁶ cm/s
inhibition (A549 [14]): Tde

Structure (SMILES): CCOC(=O)c1ccnc(CNCC(=O)N(CC)CCN(C)C)c1
logD at 20 min, 100 µM [11]: 1.5
Papp at 4 h, 100 µM [8]: 0.1 ×10⁻⁶ cm/s
pIC50 [2]: 6.68

Other lines, results leading:

inhibition activity call [1]: Active
pIC50 [2]: 8.52
Structure (SMILES): CCN(CCN(C)C(C)C)C(=O)CNCc1cc(C(=O)O)ccn1

inhibition activity call [1]: Active
Structure (SMILES): CCN(CC)CCN(CC)C(=O)CNCc1cc(C(=O)O)ccn1

inhibition activity call [1]: Active
pIC50 [2]: 8.16
Structure (SMILES): CCN(C)CCN(CC)C(=O)CNCc1cc(C(=O)O)ccn1

inhibition activity call [1]: Active
Structure (SMILES): CCN(CCN(C(C)C)C(C)C)C(=O)CNCc1cc(C(=O)O)ccn1

pIC50 [3]: 6.76
pIC50 [2]: 8.65
pIC50 [4]: 8.00
pIC50 [5]: 8.85
pIC50 [6]: < 5.30
pIC50 [7]: < 4.30
Structure (SMILES): CCN(CCN(C)C)C(=O)CNCc1cc(C(=O)O)ccn1
